Values quoted from earlier work in patent US20120108678A1, “BRANCHED COPOLYMERS, COMPOSITIONS AND USES” (UNILEVER PLC, priority 2009, published 2012).

C=CC(=O)OCC(C)O (centres unmarked) [2-Hydroxypropyl acrylate]
Solubility in water w/w at 20° C.: Soluble

C=CC(=O)OCCO [2-Hydroxyethyl acrylate]
Solubility in water w/w at 20° C.: soluble

C=C(C)C(=O)O [Methacrylic acid]
Solubility in water w/w at 20° C.: Soluble

C=Cc1ccccc1 [styrene]
water solubility (water-insoluble monomer examples): 0.02 % w/w

C=C(C)C(=O)OCCO [2-Hydroxyethyl methacrylate]
Solubility in water w/w at 20° C.: 3.00 w/w
